# Source: ChEMBL document CHEMBL3885881, “DrugMatrix”
# Species: Rattus norvegicus
# Assay: DrugMatrix - Regimen: Daily Repeat
# Type: toxicity, organism-based, Sprague-Dawley
# Parameters: regimen Daily Repeat, gender Male, age 6-8 weeks
# Settings: in vivo, iv, vehicle 100 % SALINE; for ABSOLUTE BASOPHIL / ABSOLUTE EOSINOPHIL / ABSOLUTE LYMPHOCYTE / ABSOLUTE MONOCYTE / ABSOLUTE SEGMENTED NEUTROPHIL / BASOPHIL / EOSINOPHIL / ERYTHROCYTE COUNT / HEMATOCRIT / HEMOGLOBIN / LEUKOCYTE COUNT / LYMPHOCYTE / MEAN CORPUSCULAR HEMOGLOBIN / MEAN CORPUSCULAR HEMOGLOBIN CONCENTRATION / MEAN CORPUSCULAR VOLUME / MONOCYTE / NEUTROPHIL / NUCLEATED RED BLOOD CELLS / PLATELET COUNT: tissue Blood; for ALANINE AMINOTRANSFERASE / ALBUMIN / ALKALINE PHOSPHATASE / ASPARTATE AMINOTRANSFERASE / BLOOD UREA NITROGEN / CARBON DIOXIDE / CHLORIDE / CHOLESTEROL / CREATINE PHOSPHOKINASE / CREATININE / GLUCOSE / LACTATE DEHYDROGENASE / LIPASE / PHOSPHORUS / POTASSIUM / SODIUM / TOTAL BILIRUBIN / TOTAL PROTEIN / URIC ACID: tissue Plasma
# [1] = 0 mg/kg, 72 h, dose level Control, time 3 day
# [2] = 0 mg/kg, 120 h, dose level Control, time 5 day
# [3] = 23 mg/kg, 72 h, dose level Low, time 3 day
compound,measurement,setting,value
Nc1ccn([C@@H]2O[C@H](CO)[C@@H](O)[C@@H]2O)c(=O)n1 [CYTARABINE],ABSOLUTE BASOPHIL,[1],0 CELLS/uL
same,ABSOLUTE EOSINOPHIL,[1],0 CELLS/uL
same,ABSOLUTE LYMPHOCYTE,[1],7855.5 CELLS/uL
same,ABSOLUTE MONOCYTE,[1],36.17 CELLS/uL
same,ABSOLUTE SEGMENTED NEUTROPHIL,[1],575 CELLS/uL
same,BASOPHIL,[1],0%
same,EOSINOPHIL,[1],0%
same,ERYTHROCYTE COUNT,[1],5.14 x10E6/uL
same,HEMATOCRIT,[1],33.22%
same,HEMOGLOBIN,[1],12.97 G/DL
same,LEUKOCYTE COUNT,[1],8.47 x10E3/uL
same,LYMPHOCYTE,[1],93.17%
same,MEAN CORPUSCULAR HEMOGLOBIN,[1],25.28 pg
same,MEAN CORPUSCULAR HEMOGLOBIN CONCENTRATION,[1],39.05 G/DL
same,MEAN CORPUSCULAR VOLUME,[1],64.75 fL
same,MONOCYTE,[1],0.33%
same,NEUTROPHIL,[1],6.5%
same,NUCLEATED RED BLOOD CELLS,[1],0 /100WBC
same,PLATELET COUNT,[1],1092 x10E3/uL
same,ALANINE AMINOTRANSFERASE,[1],61.67 u/L
same,ALBUMIN,[1],4.03 G/DL
same,ALKALINE PHOSPHATASE,[1],292.33 u/L
same,ASPARTATE AMINOTRANSFERASE,[1],100.83 u/L
same,BLOOD UREA NITROGEN,[1],11 mg/dL
same,CARBON DIOXIDE,[1],34.67 mmol/L
same,CHLORIDE,[1],100.25 MEQ/L
same,CHOLESTEROL,[1],71.17 mg/dL
same,CREATINE PHOSPHOKINASE,[1],554.5 u/L
same,CREATININE,[1],0.31 mg/dL
same,GLUCOSE,[1],151 mg/dL
same,LACTATE DEHYDROGENASE,[1],88.67 u/L
same,LIPASE,[1],18.83 u/L
same,PHOSPHORUS,[1],10.42 mg/dL
same,POTASSIUM,[1],5.7 MEQ/L
same,SODIUM,[1],144.57 MEQ/L
same,TOTAL BILIRUBIN,[1],0.17 mg/dL
same,TOTAL PROTEIN,[1],5.8 G/DL
same,URIC ACID,[1],0.52 mg/dL
same,ABSOLUTE BASOPHIL,[2],0 CELLS/uL
same,ABSOLUTE EOSINOPHIL,[2],53.33 CELLS/uL
same,ABSOLUTE LYMPHOCYTE,[2],7739.83 CELLS/uL
same,ABSOLUTE MONOCYTE,[2],74.83 CELLS/uL
same,ABSOLUTE SEGMENTED NEUTROPHIL,[2],832 CELLS/uL
same,BASOPHIL,[2],0%
same,EOSINOPHIL,[2],0.67%
same,ERYTHROCYTE COUNT,[2],5.55 x10E6/uL
same,HEMATOCRIT,[2],34.77%
same,HEMOGLOBIN,[2],13.62 G/DL
same,LEUKOCYTE COUNT,[2],8.7 x10E3/uL
same,LYMPHOCYTE,[2],89.17%
same,MEAN CORPUSCULAR HEMOGLOBIN,[2],24.6 pg
same,MEAN CORPUSCULAR HEMOGLOBIN CONCENTRATION,[2],39.2 G/DL
same,MEAN CORPUSCULAR VOLUME,[2],62.78 fL
same,MONOCYTE,[2],0.67%
same,NEUTROPHIL,[2],9.5%
same,NUCLEATED RED BLOOD CELLS,[2],0 /100WBC
same,PLATELET COUNT,[2],1096 x10E3/uL
same,ALANINE AMINOTRANSFERASE,[2],50 u/L
same,ALBUMIN,[2],4.02 G/DL
same,ALKALINE PHOSPHATASE,[2],271.17 u/L
same,ASPARTATE AMINOTRANSFERASE,[2],84.17 u/L
same,BLOOD UREA NITROGEN,[2],13.33 mg/dL
same,CARBON DIOXIDE,[2],27 mmol/L
same,CHLORIDE,[2],99 MEQ/L
same,CHOLESTEROL,[2],68 mg/dL
same,CREATINE PHOSPHOKINASE,[2],313.67 u/L
same,CREATININE,[2],0.21 mg/dL
same,GLUCOSE,[2],163 mg/dL
same,LACTATE DEHYDROGENASE,[2],75.67 u/L
same,LIPASE,[2],11.5 u/L
same,PHOSPHORUS,[2],9.62 mg/dL
same,POTASSIUM,[2],5.45 MEQ/L
same,SODIUM,[2],143.1 MEQ/L
same,TOTAL BILIRUBIN,[2],0.2 mg/dL
same,TOTAL PROTEIN,[2],6.08 G/DL
same,URIC ACID,[2],0.68 mg/dL
same,ABSOLUTE BASOPHIL,[3],0 CELLS/uL
same,ABSOLUTE EOSINOPHIL,[3],0 CELLS/uL
same,ABSOLUTE LYMPHOCYTE,[3],6967 CELLS/uL
same,ABSOLUTE MONOCYTE,[3],31.33 CELLS/uL
same,ABSOLUTE SEGMENTED NEUTROPHIL,[3],568.33 CELLS/uL
same,BASOPHIL,[3],0%
same,EOSINOPHIL,[3],0%
same,ERYTHROCYTE COUNT,[3],5.13 x10E6/uL
same,HEMATOCRIT,[3],33.67%
same,HEMOGLOBIN,[3],13.23 G/DL
same,LEUKOCYTE COUNT,[3],7.57 x10E3/uL
same,LYMPHOCYTE,[3],92%
same,MEAN CORPUSCULAR HEMOGLOBIN,[3],25.8 pg
same,MEAN CORPUSCULAR HEMOGLOBIN CONCENTRATION,[3],39.3 G/DL
same,MEAN CORPUSCULAR VOLUME,[3],65.53 fL
same,MONOCYTE,[3],0.33%
same,NEUTROPHIL,[3],7.67%
same,NUCLEATED RED BLOOD CELLS,[3],0 /100WBC
same,PLATELET COUNT,[3],1145.33 x10E3/uL
same,ALANINE AMINOTRANSFERASE,[3],52 u/L
same,ALBUMIN,[3],4.23 G/DL
same,ALKALINE PHOSPHATASE,[3],313.33 u/L
same,ASPARTATE AMINOTRANSFERASE,[3],91.67 u/L
same,BLOOD UREA NITROGEN,[3],11.67 mg/dL
same,CARBON DIOXIDE,[3],32.33 mmol/L
same,CHLORIDE,[3],99.5 MEQ/L
same,CHOLESTEROL,[3],73 mg/dL
same,CREATINE PHOSPHOKINASE,[3],427 u/L
same,CREATININE,[3],0.31 mg/dL
same,GLUCOSE,[3],163 mg/dL
same,LACTATE DEHYDROGENASE,[3],93 u/L
same,LIPASE,[3],13.33 u/L
same,PHOSPHORUS,[3],11.2 mg/dL
same,POTASSIUM,[3],5.61 MEQ/L
same,SODIUM,[3],143.75 MEQ/L
same,TOTAL BILIRUBIN,[3],0.1 mg/dL
same,TOTAL PROTEIN,[3],6.17 G/DL
same,URIC ACID,[3],0.83 mg/dL
